From ChEMBL document CHEMBL4043234, “Anticancer efficacy of p-dodecylaminophenol against high-risk and refractory neuroblastoma cells in vitro and in vivo” (Bioorg Med Chem Lett, 2017)
Calls of active or inactive are those of the source. The rule behind the calls is not given here.

How the values were obtained:
SK-N-AS [1] = experiment: Growth inhibition of human SK-N-AS cells at 1 uM after 24 hrs by MTT assay relative to control; type: functional; details: read-out: GI
SK-N-AS [2] = experiment: Growth inhibition of human SK-N-AS cells at 1 uM after 72 hrs by MTT assay relative to control; type: functional; details: read-out: GI
IMR-32 [3] = experiment: Growth inhibition of human IMR32 cells at 0.1 uM after 24 hrs by MTT assay relative to control; type: functional; details: IMR-32, 24 h, read-out: GI
IMR-32 [4] = experiment: Growth inhibition of human IMR32 cells at 0.1 uM after 72 hrs by MTT assay relative to control; type: functional; details: IMR-32, 72 h, read-out: GI
IMR-32 [5] = experiment: Growth inhibition of human IMR32 cells at 0.4 uM after 72 hrs by MTT assay relative to control; type: functional; details: IMR-32, 72 h, read-out: GI
IMR-32 [6] = experiment: Growth inhibition of human IMR32 cells at 0.01 uM after 72 hrs by MTT assay relative to control; type: functional; details: IMR-32, 72 h, read-out: GI
SK-N-AS [7] = experiment: Cell cycle arrest in human SK-N-AS cells at 4 uM up to 72 hrs by propidium iodide staining based flow cytometry; type: functional
SK-N-AS [8] = experiment: Cell cycle arrest in human SK-N-AS cells assessed as increase in sub-G1 phase population at 4 uM after 24 hrs by propidium iodide staining based flow cytometry relative to control; type: functional
SK-N-AS [9] = experiment: Induction of apoptosis in human SK-N-AS cells assessed as increase in caspase-3 activity at 4 uM after 24 hrs by CPP32 based colorimetric assay relative to control; type: functional
SK-N-AS [10] = experiment: Induction of apoptosis in human SK-N-AS cells assessed as increase in caspase-3 activity at 4 uM by CPP32 based colorimetric assay; type: functional, cell-based; details: TDE = time-dependent effect
SK-N-AS [11] = experiment: Induction of apoptosis in human SK-N-AS cells assessed as decrease in Bcl-2 mRNA expression level at 4 uM after 24 hrs by real-time PCR method relative to control; type: functional; parameters: scale not given: the % may be the effect or the level left
IMR-32 [12] = experiment: Induction of apoptosis in human IMR32 cells assessed as decrease in Bcl-2 mRNA expression level at 4 uM after 24 hrs by real-time PCR method relative to control; type: functional; parameters: scale not given: the % may be the effect or the level left
IMR-32 [13] = experiment: Induction of apoptosis in human IMR32 cells assessed as decrease in Bcl-2 mRNA expression level at 4 uM after 8 hrs by real-time PCR method; type: functional, cell-based
IMR-32 [14] = experiment: Reduction in N-myc mRNA expression level in human IMR32 cells at 4 uM after 24 hrs by real-time PCR method relative to control; type: functional; parameters: scale not given: the % may be the effect or the level left
IMR-32 [15] = experiment: Reduction in N-myc mRNA expression level in human IMR32 cells at 4 uM after 8 hrs by real-time PCR method; type: functional, cell-based
SK-N-AS [16] = experiment: Growth inhibition of human SK-N-AS cells at 4 uM after 24 hrs by MTT assay relative to control; type: functional; details: read-out: GI
SK-N-AS [17] = experiment: Growth inhibition of human SK-N-AS cells at 4 uM after 72 hrs by MTT assay relative to control; type: functional; details: read-out: GI

Compound	inhibition of growth at 1 µM (SK-N-AS [1]) [%]	inhibition of growth at 1 µM (SK-N-AS [2]) [%]	inhibition of growth at 0.1 µM (IMR-32 [3]) [%]	inhibition of growth at 0.1 µM (IMR-32 [4]) [%]	inhibition of growth at 0.4 µM (IMR-32 [5]) [%]	inhibition of growth at 0.01 µM (IMR-32 [6]) [%]	Activity (SK-N-AS [7])	fold change (FC) (SK-N-AS [8])	fold change (FC) (SK-N-AS [9])	Activity (SK-N-AS [10])	Activity (SK-N-AS [11]) [%]	Activity (IMR-32 [12]) [%]	Activity (IMR-32 [13])	Activity (IMR-32 [14]) [%]	Activity (IMR-32 [15])	inhibition of growth at 4 µM (SK-N-AS [16]) [%]	inhibition of growth at 4 µM (SK-N-AS [17]) [%]
CC1=C(/C=C/C(C)=C/C=C/C(C)=C/C(=O)Nc2ccc(O)cc2)C(C)(C)CCC1 [FENRETINIDE]	2	10	4	17	27	15	Active	5	4.7	Tde	62	69	inactive	27	inactive	–	–
CCCCCCCCCCCC(=O)Nc1ccc(O)cc1	–	–	–	–	–	–	–	–	–	–	–	–	–	–	–	22	24
CCCCCCCCCCNc1ccc(O)cc1	44	60	–	–	–	–	–	–	–	–	–	–	–	–	–	–	–
